Test results from ChEMBL document CHEMBL1649218, “New treatment option for second-stage African sleeping sickness: in vitro and in vivo efficacy of aza analogs of DB289” (Antimicrob Agents Chemother, 2009).
Converted amounts (≈) assume the structure as drawn. The source made the active and inactive calls. No cut-off for these calls is given here.

What was measured:
[1] = system: Trypanosoma brucei rhodesiense; test: Antitrypanosomal activity against wild-type Trypanosoma brucei rhodesiense STIB900 infected in NMRI mouse assessed as survival of mouse at 100 mg/kg, po for 4 days; assay type: functional
[2] = system: Trypanosoma brucei brucei; test: Antitrypanosomal activity against Trypanosoma brucei brucei GVR35 infected in NMRI mouse CNS model assessed as survival of mouse at 10 mg/kg, po for 10 days; assay type: functional
[3] = system: Trypanosoma brucei brucei; test: Antitrypanosomal activity against Trypanosoma brucei brucei GVR35 infected in NMRI mouse CNS model assessed as survival of mouse at 25 mg/kg, po for 10 days; assay type: functional
[4] = system: Trypanosoma brucei brucei; test: Antitrypanosomal activity against Trypanosoma brucei brucei GVR35 infected in NMRI mouse CNS model assessed as cure from infection at 25 mg/kg, po for 10 days; assay type: functional, organism-based; parameters: dose 25 mg/kg
[5] = system: Trypanosoma brucei rhodesiense; test: Antitrypanosomal activity against wild-type Trypanosoma brucei rhodesiense STIB900 infected in NMRI mouse assessed as survival of mouse at 50 mg/kg, po for 4 days; assay type: functional
[6] = system: Trypanosoma brucei brucei; test: Antitrypanosomal activity against Trypanosoma brucei brucei GVR35 infected in NMRI mouse CNS model assessed as survival of mouse at 25 mg/kg, po for 5 days; assay type: functional
[7] = system: Trypanosoma brucei brucei; test: Antitrypanosomal activity against Trypanosoma brucei brucei GVR35 infected in NMRI mouse CNS model assessed as survival of mouse at 50 mg/kg, po for 5 days; assay type: functional
[8] = system: Trypanosoma brucei brucei; test: Antitrypanosomal activity against Trypanosoma brucei brucei GVR35 infected in NMRI mouse CNS model assessed as survival of mouse at 100 mg/kg, po for 5 days; assay type: functional
[9] = system: Trypanosoma brucei rhodesiense; test: Antitrypanosomal activity against wild-type Trypanosoma brucei rhodesiense STIB900 infected in NMRI mouse assessed as survival of mouse at 25 mg/kg, po for 4 days; assay type: functional
[10] = system: Trypanosoma brucei rhodesiense; test: Antitrypanosomal activity against wild-type Trypanosoma brucei rhodesiense STIB900 infected in NMRI mouse assessed as cure from infection at 50 mg/kg, po for 4 days; assay type: functional, organism-based; parameters: dose 50 mg/kg
[11] = system: Trypanosoma brucei rhodesiense; test: Antitrypanosomal activity against wild-type Trypanosoma brucei rhodesiense STIB900 infected in NMRI mouse assessed as cure from infection at 25 mg/kg, po for 4 days; assay type: functional, organism-based; parameters: dose 25 mg/kg
[12] = system: Trypanosoma brucei brucei; test: Antitrypanosomal activity against Trypanosoma brucei brucei GVR35 infected in NMRI mouse CNS model assessed as survival of mouse at 50mg/kg, po for 10 days; assay type: functional
[13] = system: Trypanosoma brucei brucei; test: Antitrypanosomal activity against Trypanosoma brucei brucei GVR35 infected in NMRI mouse CNS model assessed as cure from infection at 50 mg/kg, po for 5 days; assay type: functional, organism-based; parameters: dose 50 mg/kg
[14] = system: Trypanosoma brucei brucei; test: Antitrypanosomal activity against Trypanosoma brucei brucei GVR35 infected in NMRI mouse CNS model assessed as cure from infection at 25 mg/kg, po for 5 days; assay type: functional, organism-based; parameters: dose 25 mg/kg
[15] = system: Trypanosoma brucei rhodesiense; test: Antitrypanosomal activity against wild-type Trypanosoma brucei rhodesiense STIB900 infected in NMRI mouse assessed as cure from infection at 100 mg/kg, po for 4 days; assay type: functional, organism-based; parameters: dose 100 mg/kg
[16] = system: Trypanosoma brucei brucei; test: Antitrypanosomal activity against Trypanosoma brucei brucei GVR35 infected in NMRI mouse CNS model assessed as survival of mouse at 75 mg/kg, po for 5 days; assay type: functional
[17] = system: Trypanosoma brucei rhodesiense; test: Antitrypanosomal activity against wild-type Trypanosoma brucei rhodesiense STIB900 infected in NMRI mouse assessed as survival of mouse at 5 mg/kg, po for 4 days; assay type: functional
[18] = system: Trypanosoma brucei brucei; test: Antitrypanosomal activity against Trypanosoma brucei brucei AT1KO by Alamar blue assay; assay type: functional, organism-based
[19] = system: Trypanosoma brucei rhodesiense; test: Antitrypanosomal activity against wild-type Trypanosoma brucei rhodesiense STIB900 infected in NMRI mouse assessed as cure from infection at 0.5 mg/kg, ip for 4 days; assay type: functional, organism-based; parameters: dose 0.5 mg/kg
[20] = system: Trypanosoma brucei gambiense; test: Antitrypanosomal activity against Trypanosoma brucei gambiense ITMAP141267 by Alamar blue assay; assay type: functional, organism-based
[21] = system: Trypanosoma brucei rhodesiense; test: Antitrypanosomal activity against wild-type Trypanosoma brucei rhodesiense STIB900 by Alamar blue assay; assay type: functional, organism-based
[22] = system: Trypanosoma brucei rhodesiense; test: Antitrypanosomal activity against melasoprol-resistant Trypanosoma brucei rhodesiense STIB900 by Alamar blue assay; assay type: functional, organism-based
[23] = Ratio of IC50 for Trypanosoma brucei gambiense STIB930 to IC50 for wild-type Trypanosoma brucei rhodesiense […]; assay type: functional
[24] = system: Trypanosoma brucei brucei; test: Ratio of IC50 for Trypanosoma brucei brucei AT1KO to IC50 for Trypanosoma brucei brucei BS221; assay type: functional
[25] = system: Trypanosoma brucei rhodesiense; test: Antitrypanosomal activity against wild-type Trypanosoma brucei rhodesiense STIB900 infected in NMRI mouse assessed as survival of mouse at 10 mg/kg, ip for 4 days; assay type: functional; conditions: route intraperitoneal
[26] = system: Trypanosoma brucei rhodesiense; test: Antitrypanosomal activity against wild-type Trypanosoma brucei rhodesiense STIB900 infected in NMRI mouse assessed as survival of mouse at 2.5 mg/kg, ip for 4 days; assay type: functional; conditions: route intraperitoneal
[27] = system: Trypanosoma brucei brucei; test: Antitrypanosomal activity against Trypanosoma brucei brucei GVR35 infected in NMRI mouse CNS model assessed as cure from infection at 20 mg/kg, ip for 5 days; assay type: functional, organism-based; parameters: dose 20 mg/kg
[28] = system: Trypanosoma brucei rhodesiense; test: Antitrypanosomal activity against wild-type Trypanosoma brucei rhodesiense STIB900 infected in NMRI mouse assessed as cure from infection at 10 mg/kg, ip for 4 days; assay type: functional, organism-based; parameters: dose 10 mg/kg
[29] = system: Trypanosoma brucei rhodesiense; test: Antitrypanosomal activity against wild-type Trypanosoma brucei rhodesiense STIB900 infected in NMRI mouse assessed as survival of mouse at 0.5 mg/kg, ip for 4 days; assay type: functional; conditions: route intraperitoneal
[30] = system: Trypanosoma brucei rhodesiense; test: Ratio of IC50 for pentamidine-resistant Trypanosoma brucei rhodesiense STIB900 to IC50 for wild-type Trypanosoma brucei rhodesiense STIB900; assay type: functional
[31] = system: Trypanosoma brucei brucei; test: Antitrypanosomal activity against Trypanosoma brucei brucei GVR35 infected in NMRI mouse CNS model assessed as survival of mouse at 20 mg/kg, ip for 5 days; assay type: functional; conditions: route intraperitoneal
[32] = system: Trypanosoma brucei rhodesiense; test: Antitrypanosomal activity against wild-type Trypanosoma brucei rhodesiense STIB900 infected in NMRI mouse assessed as survival of mouse at 5 mg/kg, ip for 4 days; assay type: functional; conditions: route intraperitoneal
[33] = system: Trypanosoma brucei rhodesiense; test: Antitrypanosomal activity against wild-type Trypanosoma brucei rhodesiense STIB900 infected in NMRI mouse assessed as cure from infection at 20 mg/kg, ip for 4 days; assay type: functional, organism-based; parameters: dose 20 mg/kg
[34] = system: Trypanosoma brucei rhodesiense; test: Ratio of IC50 for melasoprol-resistant Trypanosoma brucei rhodesiense STIB900 to IC50 for wild-type Trypanosoma brucei rhodesiense […]; assay type: functional
[35] = system: Trypanosoma brucei rhodesiense; test: Antitrypanosomal activity against pentamidine-resistant Trypanosoma brucei rhodesiense STIB900 by Alamar blue assay; assay type: functional, organism-based
[36] = system: Trypanosoma brucei brucei; test: Antitrypanosomal activity against Trypanosoma brucei brucei BS221 by Alamar blue assay; assay type: functional, organism-based
[37] = Ratio of IC50 for Trypanosoma brucei gambiense ITMAP141267 to IC50 for wild-type Trypanosoma brucei rhodesiense […]; assay type: functional
[38] = system: Trypanosoma brucei gambiense; test: Antitrypanosomal activity against Trypanosoma brucei gambiense STIB930 by Alamar blue assay; assay type: functional, organism-based
[39] = Ratio of IC50 for Trypanosoma brucei gambiense K03048 to IC50 for wild-type Trypanosoma brucei rhodesiense STIB900; assay type: functional
[40] = system: Trypanosoma brucei rhodesiense; test: Antitrypanosomal activity against wild-type Trypanosoma brucei rhodesiense STIB900 infected in NMRI mouse assessed as survival of mouse at 20 mg/kg, ip for 4 days; assay type: functional; conditions: route intraperitoneal
[41] = system: Trypanosoma brucei gambiense; test: Antitrypanosomal activity against Trypanosoma brucei gambiense K03048 by Alamar blue assay; assay type: functional, organism-based
[42] = system: Trypanosoma brucei gambiense; test: Ratio of IC50 for Trypanosoma brucei gambiense K03048 to IC50 for Trypanosoma brucei gambiense STIB930; assay type: functional
[43] = system: Trypanosoma brucei brucei; test: Antitrypanosomal activity against Trypanosoma brucei brucei GVR35 infected in NMRI mouse CNS model assessed as survival of mouse at 20 mg/kg, ip for 10 days; assay type: functional; conditions: route intraperitoneal
[44] = system: Trypanosoma brucei brucei; test: Antitrypanosomal activity against Trypanosoma brucei brucei GVR35 infected in NMRI mouse CNS model assessed as cure from infection at 100 mg/kg, po for 10 days; assay type: functional, organism-based; parameters: dose 100 mg/kg
[45] = system: Trypanosoma brucei brucei; test: Antitrypanosomal activity against Trypanosoma brucei brucei GVR35 infected in NMRI mouse CNS model assessed as cure from infection at 100 mg/kg, po for 5 days; assay type: functional, organism-based; parameters: dose 100 mg/kg
[46] = system: Trypanosoma brucei brucei; test: Antitrypanosomal activity against Trypanosoma brucei brucei GVR35 infected in NMRI mouse CNS model assessed as survival of mouse at 100 mg/kg, po for 10 days; assay type: functional
[47] = system: Trypanosoma brucei brucei; test: Antitrypanosomal activity against Trypanosoma brucei brucei GVR35 infected in NMRI mouse CNS model assessed as cure from infection at 10 mg/kg, po for 10 days; assay type: functional, organism-based; parameters: dose 10 mg/kg

Q: Which results are given for N=C(NO)c1ccc(-c2ccc(-c3ccc(/C(N)=N/O)cn3)o2)cc1?
A: MSD [1]: >54 days; Activity [2]: Active

Q: For CONC(=N)c1ccc(-c2ccc(-c3ccc(C(=N)NOC)cc3)o2)cc1 [PAFURAMIDINE], which MSD [3] is on record?
A: >146.6 days

Q: And the Activity [4]?
A: inactive

Q: And the MSD [5]?
A: >60 days

Q: What about the MSD [6] of the same compound?
A: 75.4 days

Q: And the MSD [7]?
A: >153.6 days

Q: And the MSD [8]?
A: >167.8 days

Q: And the MSD [9]?
A: >60 days

Q: What about the Activity [10] of the same compound?
A: Active

Q: And the Activity [11]?
A: Active

Q: And the MSD [12]?
A: >172.2 days

Q: And the Activity [13]?
A: inactive

Q: What about the Activity [14] of the same compound?
A: inactive

Q: For N=C(NO)c1ccc(-c2ccc(-c3ccc(/C(N)=N\O)cc3)o2)cc1, which MSD [1] is on record?
A: 50 days

Q: What about the Activity [15] of the same compound?
A: inactive

Q: For CO/N=C(/N)c1ccc(-c2ccc(-c3ccc(/C(N)=N/O)cc3)o2)nc1, which MSD [1] is on record?
A: >60 days

Q: What about the Activity [2] of the same compound?
A: Active

Q: And the MSD [16]?
A: >166 days

Q: And the MSD [17]?
A: >52.75 days

Q: And the MSD [8]?
A: >180 days

Q: What about the MSD [9] of the same compound?
A: >60 days

Q: And the Activity [11]?
A: Active

Q: With N=C(N)c1ccc(-c2ccc(-c3ccc(C(=N)N)cn3)o2)cc1 as the compound, how does the IC50 [18] read?
A: 42.9 ng/mL (≈ 0.14 µM)

Q: What about the Activity [19] of the same compound?
A: inactive

Q: And the IC50 [20]?
A: 5.7 ng/mL (≈ 0.0187 µM)

Q: And the IC50 [21]?
A: 2.4 ng/mL (≈ 0.00786 µM)

Q: And the IC50 [22]?
A: 29.2 ng/mL (≈ 0.0956 µM)

Q: What about the Ratio IC50 [23] of the same compound?
A: 3.5

Q: What about the “Ratio IC50” value [24] of the same compound?
A: 15.4

Q: And the MSD [25]?
A: >60 days

Q: What about the MSD [26] of the same compound?
A: >49 days

Q: And the Activity [27]?
A: inactive

Q: And the Activity [28]?
A: Active

Q: And the MSD [29]?
A: 29 days

Q: And the “Ratio IC50” value [30]?
A: 9.6

Q: And the MSD [31]?
A: 102.5 days

Q: What about the MSD [32] of the same compound?
A: >54.5 days

Q: What about the Activity [33] of the same compound?
A: Active

Q: What about the “Ratio IC50” value [34] of the same compound?
A: 12.4

Q: What about the IC50 [35] of the same compound?
A: 22.5 ng/mL (≈ 0.0737 µM)

Q: And the IC50 [36]?
A: 2.8 ng/mL (≈ 0.00917 µM)

Q: And the Ratio IC50 [37]?
A: 2.4

Q: And the IC50 [38]?
A: 8.4 ng/mL (≈ 0.0275 µM)

Q: And the Ratio IC50 [39]?
A: 3.5

Q: What about the MSD [40] of the same compound?
A: >60 days

Q: And the IC50 [41]?
A: 8.4 ng/mL (≈ 0.0275 µM)

Q: And the “Ratio IC50” value [42]?
A: 14

Q: What about the MSD [43] of the same compound?
A: >128.2 days

Q: For CO/N=C(\N)c1ccc(-c2ccc(-c3ccc(/C(N)=N/OC)cn3)o2)nc1, which Activity [44] is on record?
A: Active

Q: And the MSD [3]?
A: >132.4 days

Q: And the MSD [2]?
A: 70 days

Q: And the MSD [5]?
A: >60 days

Q: What about the Activity [45] of the same compound?
A: Active

Q: What about the MSD [6] of the same compound?
A: >95.8 days

Q: And the MSD [17]?
A: >40.25 days

Q: What about the MSD [8] of the same compound?
A: >180 days

Q: And the MSD [9]?
A: >42 days

Q: What about the Activity [10] of the same compound?
A: Active

Q: What about the MSD [12] of the same compound?
A: >153.4 days

Q: What about the MSD [46] of the same compound?
A: >180 days

Q: And the Activity [47]?
A: inactive

Q: And the Activity [14]?
A: inactive
